Experimental findings from a melting point compilation (Tetko et al.) are described below.

In general, melting point refers to the temperature of the solid-liquid transition. Consider `Clc1ncnc2sc3c(c12)CCCCC3`, for which the melting point was 64 to 65 °C.

`NC(=S)c1ccc(F)cc1F` yielded a melting point of 131 °C.

The compound `O=C(O)c1cccc(Cn2cccn2)c1` registered a melting point of 151 to 152 °C.

In turn, `CS(=O)(=O)Nc1ccc2nn(C3CCCC3)nc2c1` displayed a melting point of 126 °C.

The compound `COc1ccc2ccc(=O)oc2c1` returned a melting point of 119 °C.

`Cc1ccc(C)c(C(=O)CC(C)(C)C(=O)O)c1` had a melting point of 118 to 119 °C.

As to `COc1ccc(CC2c3cc(OC)c(OC)cc3CCN2C)cc1OC` (configuration not stated), the melting point was found to be 89 °C.

Regarding `O=C(Cc1ccccc1)C(=O)Cc1ccccc1`, the melting point was determined as 86 °C.

For the compound `COc1ccc(C)c(C(=O)O)c1`, the melting point is 147 °C.

In the case of `CCC1(c2ccccc2)NC(=O)N(C)C1=O` (configuration not stated), the melting point is 136 °C.

`COP(=S)(OC)SCN1C(=O)c2ccccc2C1=O` yielded a melting point of 72 °C.

In turn, `Cc1cc([N+]([O-])=Nc2ccccc2)ccc1N=Nc1ccccc1` came in with a melting point of 103 °C.

As to `C/C=C(C)/C=C/C=C(C)C`, the melting point was -35.4 °C.

Turning to `CC(=O)c1sccc1N`, the melting point lay within 86 to 88 °C.

On to `CCOC1Oc2ccc(C)cc2C(=O)/C1=C/Nc1nc2ccc(Cl)cc2s1` (configuration not stated), for which the melting point lay in the range of 146 to 148 °C.

`CN(C)c1ccc(N=C(C#N)c2cccc(C(C#N)=Nc3ccc(N(C)C)cc3)c2)cc1`: the melting point turned out to be 150 °C.

`C=CCOc1ccc(CC(=O)O)cc1Cl` returned a melting point of 92 °C.

Regarding `N#CCNCC#N`, the melting point came to 77 °C.

`Nn1nnc2ccccc21`: the melting point lay in the range of 81 to 85 °C.

`CC(C)(N)P(=O)(O)O` displayed a melting point of 287 to 290 °C.

`O=Cc1c(F)c(F)c(F)c(F)c1F` showed a melting point of 25.5 °C.

For the compound `OCC1OC(OC2C(CO)OC(O)(CO)C2O)C(O)C(O)C1O` (configuration not stated), the melting point was determined as 176 °C.

The compound `CNc1cc(Cl)ccc1[N+](=O)[O-]` returned a melting point of 104 to 107 °C.

For `Brc1ccc2c(c1)CCO2`, the melting point was 49 to 50 °C.

The compound `O=C(O)c1ccc(=O)[nH]c1` had a melting point of 314 to 316 °C.

For `CCCCCCOC(=O)CCCCC`, the melting point was -55 °C.

`C(=C\c1nn2c(COc3ccccc3)nnc2s1)/c1ccccc1` displayed a melting point of 141 to 143 °C.

Take `O=Cc1ccc(N2CCCC2)c([N+](=O)[O-])c1`: the melting point is 103 to 105 °C.

In the case of `CCCCCCCCCCC(C)C`, the melting point was -26 °C.

In the case of `CCCCCCCCCCCCCCCCCC(=O)OCCCCC`, the melting point came to 30 °C.

In turn, `O=C(Cl)c1ccc(-c2nccs2)cc1` yielded a melting point of 122 to 123 °C.

Turning to `Nc1cc(F)ccc1O`, the melting point was determined as 140 °C.

As for `O=[N+]([O-])c1ccc(Br)c2cccc(C=Nc3ccccc3)c12`, the melting point came to 232 °C.

Consider `CC1(C)CC(O)CC(C)(CN)C1` (configuration not stated), for which the melting point was 45.5 °C.

`CCCOc1ccccc1OCC(O)CO` (configuration not stated) displayed a melting point of 70 °C.

The compound `O=Cc1ccc(N2CCCC2=O)cc1` returned a melting point of 121 to 122 °C.

Consider `O=C1CCc2cc(Br)ccc2C1`, for which the melting point was in the range of 70 to 76 °C.

Take `O=[N+]([O-])c1c(O)c(Cl)cc(Cl)c1Cl`: the melting point came out at 92.5 °C.

The compound `O=Cc1cccn1-c1cc(Cl)cc(Cl)c1` returned a melting point of 150 to 152 °C.

Consider `COc1cc(OC)c2c(=O)c(=O)c2c1`, for which the melting point worked out at 149 °C.

For the compound `Oc1ccc(O)c(Cc2ccccc2)c1`, the melting point is 106 °C.

`CC(=O)Oc1ccccc1C1NC(=O)NC(C)=C1C(=O)OCc1ccccc1` (configuration not stated) displayed a melting point of 202 to 203 °C.

For `O=Cc1cccc2nsnc12`, the melting point lay within 99 to 101 °C.

The compound `CC(C)(C)OC(=O)N1CCC(C(=O)c2ccc(F)cc2)CC1` showed a melting point of 89 to 91 °C.

Regarding `O=C(CC(=O)c1ccccc1)c1ccccc1`, the melting point was determined as 78 °C.

For `O=C(Cl)c1cccc2nsnc12`, the melting point lay within 110 to 114 °C.

In turn, `Cc1ccc2[nH]c3ccccc3c2c1` returned a melting point of 208 °C.

`CCCCCCCCCCCCCCCCCCCC1CCCCC1` yielded a melting point of 45 °C.

`c1ccc(C2c3ccccc3-c3ccccc32)cc1`: the melting point worked out at 147 °C.

In turn, `N=C1SCCN1CC(=O)c1ccc([N+](=O)[O-])cc1` returned a melting point of 210 °C.

Consider `CCCCCCCCC=CCCCCCCCC(=O)OC`, for which the melting point came out at 9.5 °C.

As for `Cc1cc(O)c([N+](=O)[O-])c(=O)[nH]1`, the melting point lay within 293 to 296 °C.

Take `CCCCCCCCCCCCCCCC(C)CC` (configuration not stated): the melting point is 1 °C.

Consider `COc1ccc2oc(C(=O)O)cc2c1`, for which the melting point fell in the range of 212 to 214 °C.

As to `OC(CCl)c1ccc(Cl)cc1Cl` (configuration not stated), the melting point is 48 to 52 °C.

In turn, `CSc1nc(=O)n(Cc2ccccc2)c2c1CCC2` had a melting point of 94 to 96 °C.

`O=C(O)CCC(=O)CCC(=O)O` showed a melting point of 142 to 144 °C.

`O=C(O)c1scc2c1CCCC2` yielded a melting point of 203 to 205 °C.

`O=[N+]([O-])c1ccc(/C=C/C=C/C=C/c2ccc([N+](=O)[O-])cc2)cc1` yielded a melting point of 240 °C.

As to `N#CCc1cccc(C(F)(F)F)c1Cl`, the melting point worked out at 57.5 °C.

`Nc1nc(-c2cccc3ccccc23)cs1` gave a melting point of 157 °C.

`O=C(O)c1c(Cl)ccc2cc(Cl)cnc12`: the melting point is 274 °C.

In the case of `Nc1ccc(N)c2c1C(=O)c1cccc([N+](=O)[O-])c1C2=O`, the melting point is 257 °C.

On to `O=c1c2cc(F)ccc2nc(-n2cncn2)n1-c1ccc(Cl)cc1Cl`, for which the melting point turned out to be 192 °C.

`CCNC(C)Cc1cccc(C(F)(F)F)c1` (configuration not stated) gave a melting point of 110 °C.

The compound `Fc1ccc(Br)c(CBr)c1` came in with a melting point of 35 °C.

Compound `O=S1(=O)c2ccccc2-c2ccccc21` gave a melting point of 231 to 236 °C.

`COC(=O)c1ccc(=O)oc1`: the melting point came out at 70 °C.

`O=C1c2ccccc2C(=O)C1(Br)c1ccccc1` showed a melting point of 106 to 107 °C.

`Nc1cccc(-c2cccc(N)c2)c1`: the melting point amounted to 93.5 °C.

Consider `CN(C(=S)Cl)c1ccc(Br)cc1`, for which the melting point was in the range of 101 to 104 °C.

`O=C(O)CNc1ccc(Br)cc1C(=O)O` had a melting point of 211 to 215 °C.

The compound `CCc1cccc(CC)c1NC(=O)CCl` returned a melting point of 130 °C.

In the case of `ICCCCCCCCI`, the melting point was 16 to 21 °C.

Regarding `Cc1ccc(C#N)cc1F`, the melting point is 47 °C.

In the case of `Brc1ccc(Oc2c(Br)cccc2Br)cc1`, the melting point lay within 77 to 77.5 °C.

As for `Sc1nc2cccnc2s1`, the melting point worked out at 300 °C.

For the compound `O=C(O)c1cc2sccc2s1`, the melting point was found to be 222 °C.

In the case of `C=C(C)C(CC)CC`, the melting point was -113 °C.

In the case of `CC(=O)n1c2ccccc2c2cc3ccccc3nc21`, the melting point is 187 °C.

Consider `CCCC(N)P(=O)(O)O` (configuration not stated), for which the melting point was in the range of 276 to 281 °C.

As to `Clc1ccc(C=Nc2n[nH]c(N=Cc3ccc(Cl)cc3)c2Cc2ccc(Cl)cc2)cc1`, the melting point is 228 to 230 °C.

The compound `NNC(=S)NCc1cccnc1` showed a melting point of 171 to 173 °C.

Compound `Clc1nc(Br)ns1` had a melting point of 24 to 25 °C.

In the case of `CC(CCC(O)(Cl)Cl)C1CCC2C3C(O)CC4CC(O)CCC4(C)C3CC(O)C12C` (configuration not stated), the melting point lay within 162 to 170 °C.

`CCCCCCCCCCCCCCCN`: the melting point came to 37.3 °C.

The compound `COCCOc1cnc(NS(=O)(=O)c2ccccc2)nc1` had a melting point of 152 °C.

Take `C/C(=C\C(=O)c1ccc(F)cc1)c1ccc(F)cc1`: the melting point was 51 °C.

Consider `CCC1OC(=O)C(C)C(OC2CC(C)(OC)C(O)C(C)O2)C(C)C(OC2OC(C)CC(N(C)C)C2O)C(C)(O)CC(C)C(=O)C(C)C(O)C1(C)O` (configuration not stated), for which the melting point turned out to be 135 °C.

In turn, `Clc1c(Cl)c(Cl)c2c(c1Cl)OC(c1ccccc1)(c1ccccc1)O2` displayed a melting point of 153 °C.

With `c1ccc(N2CCCCC2)cc1`, the melting point stood at 4.7 °C.

`CCc1c(C)nc(NC(=O)NS(=O)(=O)c2cccs2)nc1O` displayed a melting point of 179 to 180 °C.

Consider `O=C(OCc1ccccc1)[C@@H](O)[C@H](O)C(=O)OCc1ccccc1`, for which the melting point was in the range of 63 to 65 °C.

On to `Clc1cc2c(cc1Cl)Oc1cc(Br)c(Br)cc1O2`, for which the melting point turned out to be 316 °C.

`CC(C)CCCC(C)C1CCC2C3CC=C4CC(OC(=O)Cl)CCC4(C)C3CCC12C` (configuration not stated) displayed a melting point of 118 °C.

As for `Nc1ccc(OC2CCOCC2)cc1`, the melting point was 71 to 73 °C.

`CC(C)[C@H](NC(=O)OCC1c2ccccc2-c2ccccc21)C(=O)O`: the melting point lay within 143 to 147 °C.

As for `CCOc1nc2ccccc2c(=O)n1Cc1cccnc1`, the melting point was 67 to 70 °C.

In turn, `Cc1c(F)c(F)c(C(=O)O)c(F)c1F` came in with a melting point of 174 °C.

Consider `NCCC(c1ccccc1)c1ccccc1`, for which the melting point was in the range of 29 to 31 °C.

On to `CC(=O)OC1CCCCC1`, for which the melting point is -65 °C.

For `N#Cc1ccc(F)c(Br)c1`, the melting point was found to be 56 °C.

Regarding `Oc1ccccc1-c1ccccc1O`, the melting point was found to be 109 °C.

With `O=S(=O)(c1ccccc1)c1cccs1`, the melting point is 123 °C.

The compound `Oc1c(Cl)cc(Cl)c2ccccc12` displayed a melting point of 108 °C.

`CCOC(=O)C(C#N)=C(N)c1cc2ccccc2oc1=O` showed a melting point of 247 to 249 °C.

`OCc1cccnc1Cl` came in with a melting point of 54 to 55 °C.

In turn, `Clc1cc(Br)ccn1` showed a melting point of 19 °C.

`CC(C=CC1(O)C(C)=CC(=O)CC1(C)C)=CC(=O)O` (configuration not stated) returned a melting point of 160 °C.

On to `COc1cc(O)c2c(=O)c(O[C@@H]3O[C@H](CO)[C@H](O)[C@H](O)[C@@H]3O[C@@H]3O[C@H](C)[C@H](O)[C@H](O)[C@@H]3O)c(-c3cccc(O)c3)oc2c1`, for which the melting point was in the range of 182 to 188 °C.

Compound `CC(=O)Nc1ccc2c(c1)CCC2` showed a melting point of 106 to 108 °C.

The compound `O=C(Oc1c(F)c(F)c(F)c(F)c1F)c1ccc(-c2cnco2)cc1` displayed a melting point of 141 to 143 °C.
